The values below come from patent US9675591B2, “Methods for treating seizure disorders and pain” (THE REGENTS OF THE UNIVERSITY OF CALIFORNIA, priority 2013, dated 2017).

Molecules are shown by their SMILES. Entries after “also recorded” stand apart in the source; their conditions may differ.

One test addresses Nav1.7 (Homo sapiens (Human), UniProt Q15858). The experiment in a line: Voltage-clamp, Nav1.7 in HEK-293 cells. The class given is cell-based. The procedure:
(§1) All experiments were conducted at room temperature (22-24° C.) with an EPC-10 amplifier and Pulse software (HEKA, Lambrecht/Pfalz, Germany) in the whole-cell mode of the patch-clamp technique. Human embryonic kidney (HEK)-293 cell lines stably expressing hNav1.1, hNav1.5, hNav1.7 channels (generously provided by Dr. Christopher Lossin, University of California Davis), hNav1.4 (Frank Lehmann-Horn, University of Ulm), or hKv2.1 channels (James Trimmer, University of California Davis) were bathed in extracellular solution containing (in mM): 160 NaCl; 4.5 KCl; 1 MgCl2; 2 CaCl2; 10 HEPES [pH was adjusted to 7.4 using NaOH (310 mOsm)]. Pipettes were filled with intracellular solution containing (in mM): 145 KF; 2 MgCl2; 10 ethylene glycol tetraacetic acid; 10 HEPES (pH adjusted to 7.2 with KOH; 300 mOsm). Neuroblastoma N1E-115 cells (ATCC, Manassa, Va., USA) expressing Nav1.2 were patched with a CsF internal solution consisting of (in mM): 10 NaF; 110 CsF; 20 CsCl; 2 ethylene glycol tetraacetic acid; 10 HEPES (CsOH to pH 7.35; 300 mOsm). All pipette tip resistances were 2-4 MΩ. Series resistances of 3-10 MΩ were compensated 40-80%. All cells were voltage-clamped to a holding potential of −90 mV unless otherwise specified. The sampling frequency was 5 kHz. Na^+ currents were elicited by 30-ms pulse to 0 mV from −90 mV applied every 10 s. […]

For another test, the system named is 6 Hz seizures. Nature of the test: 6 Hz seizure test, compounds given i.p. as solution. The class given is in vivo. The following applies: Mus musculus, ip, 10 min, mice, values stated uncertain. The procedure: The mouse maximal electroshock (MES) and 6 Hz seizure models were used. Motor toxicity was assessed using a modification of the horizontal screen test. ED50 values in the seizure models and TD50 values in the toxicity test were determined by nonlinear fitting of dose-response curves. […] Drugs solutions were injected intraperitoneally 10 min prior to administration of the electrical stimulus in a volume of 10 ml/kg body weight.

The subject of test [1] is 6-Hz psychomotor seizures. The experiment in a line: 6-Hz psychomotor seizure test (ASP). It counts as in vivo, mice. The following applies: for ED50: Mus musculus, ip, mice. The procedure: Seizures characterized by a minimal clonic phase followed by stereotyped automatistic behaviors (jaw chomping and whisker movement) were induced in mice by a low frequency (6 Hz), long-duration (3 s) stimulus. These seizures resemble automatistic behavior in patients with complex partial seizures. At varying times (0.25, 0.5, 1, 2, and 4 h) after drug treatment, individual mice (four at each time point) were challenged with sufficient current (32 or 44 mA at 6 Hz for 3 s) delivered through corneal electrodes to elicit a psychomotor seizure. Animals not displaying this behavior are considered protected.

A further test has as its system sound-induced seizures. Nature of the test: Frings audiogenic seizure (AGS)-susceptible mouse model. The class given is in vivo, mice. Conditions: ip, 2 h, read-out: ED50, protection from sound induced seizures. On the procedure:
Frings audiogenic seizure (AGS)-susceptible mice are genetically susceptible to sound-induced seizures (Frings et al., 1953). A colony of AGS mice is maintained by the ASP at the University of Utah. Groups of 8 female mice (weighing 18-25 g) were treated i.p. with increasing doses of SKA-19. At the TPE in the MES test, mice were exposed to a sound stimulus of 110 decibels (11 KHz) delivered for 20 s.

The next test concerns the target Kv2.1 (Homo sapiens (Human), UniProt Q14721). Nature of the test: Voltage-clamp, Kv2.1 in HEK-293 cells. It counts as cell-based. Conditions: read-out: EC50 or IC50, Kv2.1. The procedure:
as §1

A further test has as its target Nav1.5 (Homo sapiens (Human), UniProt Q14524). The experiment in a line: Voltage-clamp, Nav1.5 in HEK-293 cells. The class given is cell-based. On the procedure:
as §1

In test [2] the test system is lamotrigine resistant amygdala kindled rats. Nature of the test: Lamotrigine resistant amygdala kindled rats. The class given is in vivo.
Another test relates to CA1 pyramidal neurons. The experiment in a line: Hippocampal slice recordings. Conditions: for effect on AP firing: 1-s 150-pA current injection. It counts as cell-based, mouse. The procedure: Brain slice preparation was approved by the University of California, Irvine, Institutional Animal Care and Use Committee. Male C57BL/6 J mice (postnatal day 23) were anesthetized with halothane, decapitated, and brains transferred to an ice-cold, sucrose artificial cerebral spinal fluid (ACSF; Sigma-Aldrich). Hippocampal slices (300 μm) were prepared using a Leica VT1200S vibrating blade microtome (Leica Microsystems Inc., Buffalo Grove, Ill.). Slices were incubated at 33° C. in oxygenated (95% O2, 5% CO2) standard ACSF containing the following (mM) for at least 1 h before recordings: 126 NaCl, 2.5 KCl, 1.25 NaHPO4, 1.2 MgSO4, 10 glucose, 1.2 CaCl2, and 26 NaHCO3. Slices were submerged and continuously perfused at 2 ml/min with oxygenated ACSF at 33° C. during the current-clamp experiments. Voltage-clamp experiments were performed in the same ACSF but with 1 mM tetraethylammonium chloride (Sigma-Aldrich) and 0.5 μM tetrodotoxin (Sigma-Aldrich) added. Pyramidal CA1 neurons were visualized and identified with an upright microscope (Zeiss Axioskop Plus; Zeiss Jena, Germany) with infrared differential interference contrast optics. Recording pipettes (2-5 MΩ) were filled with intracellular solution containing (in mM): 126 K-gluconate; 4 KCl; 10 HEPES; 2 Mg-adenosine triphosphate; 0.3 Tris-guanosine triphosphate; 10 phosphocreatine, pH 7.20, 270-290 mOsm. In the current-clamp mode, depolarizing current pulses were applied from a membrane potential of −65 mV to evoke tonic firing activity. In the voltage-clamp mode, neurons were held at −55 mV and KCa currents elicited by 50-ms voltage steps to 10 mV, applied every 10 s. SKA-19 or NS309 were perfused for 10 min into the bath to allow for equilibrium. Recordings were performed in the whole-cell mode using a MultiClamp 700B amplifier (Molecular Devices), […] and sampled at 20 kHz with a Digidata 1322A digitizer (Molecular Devices). Data were acquired and analyzed with pClamp 10.2 software (Molecular Devices).

In another test the target is Nav1.3 (Homo sapiens (Human), UniProt Q9NY46). Nature of the test: Voltage-clamp, Nav1.3. The class given is cell-based. The following applies: read-out: EC50 or IC50, Nav1.3.
Sequence of Nav1.3 (Q9NY46 whole entry): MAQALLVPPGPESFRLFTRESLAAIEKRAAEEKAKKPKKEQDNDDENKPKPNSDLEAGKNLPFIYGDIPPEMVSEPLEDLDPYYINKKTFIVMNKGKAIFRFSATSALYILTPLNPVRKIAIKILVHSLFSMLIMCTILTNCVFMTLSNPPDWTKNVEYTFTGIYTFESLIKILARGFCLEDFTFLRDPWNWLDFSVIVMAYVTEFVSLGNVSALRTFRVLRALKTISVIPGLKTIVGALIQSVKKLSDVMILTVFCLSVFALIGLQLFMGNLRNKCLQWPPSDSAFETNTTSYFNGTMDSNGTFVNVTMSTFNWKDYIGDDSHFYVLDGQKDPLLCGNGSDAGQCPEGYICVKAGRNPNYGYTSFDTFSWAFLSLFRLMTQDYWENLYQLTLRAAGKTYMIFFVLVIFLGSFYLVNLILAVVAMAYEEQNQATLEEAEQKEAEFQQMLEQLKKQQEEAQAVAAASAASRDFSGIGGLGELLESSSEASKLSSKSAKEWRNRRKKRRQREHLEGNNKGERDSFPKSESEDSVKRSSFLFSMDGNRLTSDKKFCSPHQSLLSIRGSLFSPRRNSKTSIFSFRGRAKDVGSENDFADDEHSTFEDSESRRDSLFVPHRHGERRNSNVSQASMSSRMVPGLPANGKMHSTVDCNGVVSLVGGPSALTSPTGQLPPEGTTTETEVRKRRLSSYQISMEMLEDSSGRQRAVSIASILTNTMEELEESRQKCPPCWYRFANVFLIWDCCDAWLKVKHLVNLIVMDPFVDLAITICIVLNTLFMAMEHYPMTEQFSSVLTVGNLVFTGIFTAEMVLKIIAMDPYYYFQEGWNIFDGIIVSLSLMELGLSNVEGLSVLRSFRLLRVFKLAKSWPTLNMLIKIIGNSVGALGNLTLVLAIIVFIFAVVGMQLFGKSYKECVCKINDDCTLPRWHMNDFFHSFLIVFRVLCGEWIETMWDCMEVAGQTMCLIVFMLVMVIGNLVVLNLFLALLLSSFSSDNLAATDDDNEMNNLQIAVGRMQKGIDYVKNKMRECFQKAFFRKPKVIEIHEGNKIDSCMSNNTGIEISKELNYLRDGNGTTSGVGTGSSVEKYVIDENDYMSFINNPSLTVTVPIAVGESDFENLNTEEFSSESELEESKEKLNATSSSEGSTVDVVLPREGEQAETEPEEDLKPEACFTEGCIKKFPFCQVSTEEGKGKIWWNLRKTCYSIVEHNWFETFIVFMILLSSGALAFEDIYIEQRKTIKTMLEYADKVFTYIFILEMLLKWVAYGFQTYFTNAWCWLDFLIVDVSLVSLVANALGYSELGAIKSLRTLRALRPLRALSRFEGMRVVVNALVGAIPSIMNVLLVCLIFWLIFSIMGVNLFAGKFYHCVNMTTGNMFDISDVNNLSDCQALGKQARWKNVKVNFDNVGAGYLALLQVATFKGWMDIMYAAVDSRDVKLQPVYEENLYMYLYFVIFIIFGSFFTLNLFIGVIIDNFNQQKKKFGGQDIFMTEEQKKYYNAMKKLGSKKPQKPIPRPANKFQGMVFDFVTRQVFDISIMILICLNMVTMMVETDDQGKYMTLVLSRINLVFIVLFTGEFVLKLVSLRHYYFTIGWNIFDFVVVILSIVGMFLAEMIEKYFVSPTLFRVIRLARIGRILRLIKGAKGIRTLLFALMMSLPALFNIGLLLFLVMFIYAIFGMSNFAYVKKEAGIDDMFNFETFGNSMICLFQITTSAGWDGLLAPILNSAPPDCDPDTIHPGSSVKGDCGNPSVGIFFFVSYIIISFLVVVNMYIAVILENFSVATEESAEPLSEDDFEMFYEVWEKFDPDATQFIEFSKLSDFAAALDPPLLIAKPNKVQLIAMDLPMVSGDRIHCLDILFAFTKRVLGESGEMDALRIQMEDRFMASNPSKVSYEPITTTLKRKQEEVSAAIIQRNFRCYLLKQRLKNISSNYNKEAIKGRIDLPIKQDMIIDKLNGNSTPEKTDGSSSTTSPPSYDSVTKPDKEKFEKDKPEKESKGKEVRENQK

Sequence of Nav1.5 (Q14524 whole entry): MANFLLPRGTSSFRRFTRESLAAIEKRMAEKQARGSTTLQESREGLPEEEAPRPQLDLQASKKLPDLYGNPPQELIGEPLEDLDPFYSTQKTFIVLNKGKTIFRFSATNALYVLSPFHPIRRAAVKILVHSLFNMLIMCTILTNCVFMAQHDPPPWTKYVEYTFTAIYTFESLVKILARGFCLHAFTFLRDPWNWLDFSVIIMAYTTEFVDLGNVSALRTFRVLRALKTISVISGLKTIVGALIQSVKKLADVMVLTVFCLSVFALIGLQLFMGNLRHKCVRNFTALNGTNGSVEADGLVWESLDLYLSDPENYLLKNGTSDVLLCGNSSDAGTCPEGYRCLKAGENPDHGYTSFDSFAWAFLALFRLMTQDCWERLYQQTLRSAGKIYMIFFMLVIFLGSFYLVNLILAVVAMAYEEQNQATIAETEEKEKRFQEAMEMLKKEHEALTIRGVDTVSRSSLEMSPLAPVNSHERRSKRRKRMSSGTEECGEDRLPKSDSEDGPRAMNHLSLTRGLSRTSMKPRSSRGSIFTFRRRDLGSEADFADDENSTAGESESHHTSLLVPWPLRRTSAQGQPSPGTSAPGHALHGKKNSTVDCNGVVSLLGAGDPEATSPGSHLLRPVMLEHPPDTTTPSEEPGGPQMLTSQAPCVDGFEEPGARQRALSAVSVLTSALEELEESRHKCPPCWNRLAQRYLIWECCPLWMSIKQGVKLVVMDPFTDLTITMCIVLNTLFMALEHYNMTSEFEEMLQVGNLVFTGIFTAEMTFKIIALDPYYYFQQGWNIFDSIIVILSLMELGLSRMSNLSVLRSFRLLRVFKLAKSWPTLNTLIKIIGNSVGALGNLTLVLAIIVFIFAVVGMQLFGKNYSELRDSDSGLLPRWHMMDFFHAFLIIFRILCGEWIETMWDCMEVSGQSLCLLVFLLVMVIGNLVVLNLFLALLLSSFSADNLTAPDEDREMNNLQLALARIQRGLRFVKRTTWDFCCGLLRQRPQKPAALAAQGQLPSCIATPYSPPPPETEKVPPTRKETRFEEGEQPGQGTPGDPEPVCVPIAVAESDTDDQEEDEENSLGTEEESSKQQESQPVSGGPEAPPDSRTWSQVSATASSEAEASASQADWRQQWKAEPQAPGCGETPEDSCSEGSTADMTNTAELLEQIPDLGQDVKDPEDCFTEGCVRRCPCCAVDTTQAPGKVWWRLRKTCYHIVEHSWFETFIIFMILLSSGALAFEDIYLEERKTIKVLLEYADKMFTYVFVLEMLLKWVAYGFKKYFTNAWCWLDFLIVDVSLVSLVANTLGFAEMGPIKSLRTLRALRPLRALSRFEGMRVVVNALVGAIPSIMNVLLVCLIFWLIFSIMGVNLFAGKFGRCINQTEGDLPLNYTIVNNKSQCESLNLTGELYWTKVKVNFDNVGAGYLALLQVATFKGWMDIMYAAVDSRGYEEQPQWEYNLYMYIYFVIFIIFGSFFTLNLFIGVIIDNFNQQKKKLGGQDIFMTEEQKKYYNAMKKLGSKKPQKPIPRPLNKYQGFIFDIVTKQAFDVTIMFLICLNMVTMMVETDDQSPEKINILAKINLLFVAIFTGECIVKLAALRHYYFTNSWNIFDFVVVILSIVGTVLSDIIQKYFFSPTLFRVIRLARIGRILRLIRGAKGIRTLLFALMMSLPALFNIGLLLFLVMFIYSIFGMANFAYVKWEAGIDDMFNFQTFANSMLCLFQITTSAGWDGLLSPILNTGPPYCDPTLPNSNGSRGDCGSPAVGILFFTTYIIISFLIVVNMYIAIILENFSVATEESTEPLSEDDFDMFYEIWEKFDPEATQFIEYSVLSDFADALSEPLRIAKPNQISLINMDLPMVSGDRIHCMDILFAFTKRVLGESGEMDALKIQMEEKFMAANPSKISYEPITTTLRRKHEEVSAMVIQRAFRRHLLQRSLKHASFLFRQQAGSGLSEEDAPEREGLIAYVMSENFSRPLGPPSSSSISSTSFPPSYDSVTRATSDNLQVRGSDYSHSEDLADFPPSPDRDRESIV
Sequence of Kv2.1 (Q14721 whole entry): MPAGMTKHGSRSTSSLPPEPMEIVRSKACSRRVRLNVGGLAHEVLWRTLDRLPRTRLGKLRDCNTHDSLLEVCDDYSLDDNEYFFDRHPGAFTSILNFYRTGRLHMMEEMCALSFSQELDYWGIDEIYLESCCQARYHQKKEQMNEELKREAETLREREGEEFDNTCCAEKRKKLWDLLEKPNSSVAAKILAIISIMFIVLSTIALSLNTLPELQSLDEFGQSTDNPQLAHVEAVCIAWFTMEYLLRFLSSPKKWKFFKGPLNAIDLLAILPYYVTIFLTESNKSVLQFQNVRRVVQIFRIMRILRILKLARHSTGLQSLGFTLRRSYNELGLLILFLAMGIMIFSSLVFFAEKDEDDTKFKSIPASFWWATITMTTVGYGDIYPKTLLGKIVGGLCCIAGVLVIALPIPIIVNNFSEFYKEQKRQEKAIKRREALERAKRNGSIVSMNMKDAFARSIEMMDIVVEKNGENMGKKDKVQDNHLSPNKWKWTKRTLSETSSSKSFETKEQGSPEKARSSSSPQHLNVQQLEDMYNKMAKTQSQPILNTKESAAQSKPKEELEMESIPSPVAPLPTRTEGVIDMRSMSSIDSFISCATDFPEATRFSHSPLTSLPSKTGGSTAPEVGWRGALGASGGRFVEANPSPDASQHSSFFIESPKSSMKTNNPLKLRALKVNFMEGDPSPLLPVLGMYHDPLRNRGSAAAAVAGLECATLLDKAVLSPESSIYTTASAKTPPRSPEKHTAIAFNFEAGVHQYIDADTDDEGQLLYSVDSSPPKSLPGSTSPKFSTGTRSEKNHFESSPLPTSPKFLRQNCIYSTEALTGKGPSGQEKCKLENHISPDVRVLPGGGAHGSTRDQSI

`Nc1nc2ccc(SC(F)(F)F)cc2s1` [SKA-19, 6-((trifluoromethyl)thio)benzo[d]thiazol-2-amine]: at Nav1.7, the “block of Nav1.7” value is on record as “low micromolar range”. In addition, the 50% effective dose (ED50) turned out to be 22.5 mg/kg in the test with 6 Hz seizures; 12.2 mg/kg in test [1] (2 h, 32 mA); 28.1 mg/kg in test [1] (current intensity 44 mA); 2.15 mg/kg with sound-induced seizures. For the same molecule, the “protection in 6-Hz test, initial screen” value in [1] (10 mg/kg i.p., all other tested time points) is recorded as “partial protection”; in test [1] (2 hours after i.p. 10 mg/kg), “full protection (4 out of 4 animals)”. The half-inhibitory concentration (IC50) on Kv2.1 is 22.3 ± 5.6 µM; on Nav1.5 (read-out: EC50 or IC50, Nav1.5), 5.8 ± 2.6 µM; at Nav1.3, 2.2 ± 1.1 µM. In addition, the “block of Nav1.5” value on Nav1.5 is given as “low micromolar range”. Further, the rats protected was 2 out of 8 in test [2] (6 mg/kg) and 3 out of 7 in test [2] (50 mg/kg). Further, the “effect on AP firing” value is recorded as “slowed down AP firing” with CA1 pyramidal neurons (1 μM) and “completely suppressed” in the test on CA1 pyramidal neurons (25 μM). In addition, the “reduction of the number of spikes” value with CA1 pyramidal neurons (10 μM, all injected current levels) is listed as “roughly 50%”. Also, the “after-hyperpolarization amplitude of individual APs” value with CA1 pyramidal neurons (10 μM, current-clamp) is recorded as “increase in after-hyperpolarization amplitude”. Moreover, the mAHP current amplitude result with CA1 pyramidal neurons (voltage-clamp, 10 μM) is reported as “modest but significant increase; also recorded: increases the amplitude”.

For orientation: ED50 means the dose at which the effect has come halfway, by size or by number of responders. Broadly, the IC50 is the concentration needed to halve the response being measured.
